Here are results for 31 compounds from patent US20120172359A1 (NOVARTIS AG, priority 2010, published 2012).

SMILES strings stand for the structures. Where a name gives a salt, the structure may show the parent alone.

One may read the IC50 as the point on the concentration scale where inhibition reaches its midpoint.

The target in the assay is Human BACE-1 (Homo sapiens, UniProt P56817). The experiment in a line: Test 1: Inhibition of Human BACE-1. Type of assay: biochemical. The conditions noted are these: Test 1; recombinant BACE-1 (extracellular domain), acetate buffer pH 4.5, 1 hour with test compound at room temperature, fluorescence-quenched peptide substrate; read-out: Bace IC50.
Chain of Human BACE-1 (P56817 46-457 limits assumed): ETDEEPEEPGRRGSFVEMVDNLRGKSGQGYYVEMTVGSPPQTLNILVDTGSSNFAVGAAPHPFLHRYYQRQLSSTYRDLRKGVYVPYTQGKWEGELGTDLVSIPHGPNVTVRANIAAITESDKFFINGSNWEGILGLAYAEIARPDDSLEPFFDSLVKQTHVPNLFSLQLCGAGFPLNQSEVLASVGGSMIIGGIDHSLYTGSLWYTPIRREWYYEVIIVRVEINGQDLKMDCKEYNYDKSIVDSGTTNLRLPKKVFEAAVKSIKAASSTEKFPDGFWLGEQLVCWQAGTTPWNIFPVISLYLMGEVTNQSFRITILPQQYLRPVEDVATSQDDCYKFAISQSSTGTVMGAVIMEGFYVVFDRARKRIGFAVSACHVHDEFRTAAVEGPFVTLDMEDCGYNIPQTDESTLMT
For the compound `COc1ccc(C(=O)Nc2cccc([C@]3(C)COCC(N)=N3)c2)nc1` [Example 30, 5-Methoxy-pyridine-2-carboxylic acid [3-((R)-5-amino-3-methyl-3,6-dihydro-2H-[1,4]oxazin-3-yl)-phenyl]-amide], the IC50 came out at 330 nM.

For the compound `NC1=NC(CF)(c2cccc(NC(=O)c3ccc(Br)cn3)c2)COC1` (stereo not shown) [Example 31, 5-Bromo-pyridine-2-carboxylic acid [3-(5-amino-3-fluoromethyl-3,6-dihydro-2H-[1,4]oxazin-3-yl)-phenyl]-amide], the IC50 was determined as 160 nM. For the compound `NC1=NC(CF)(c2cc(Cl)cc(NC(=O)c3ccc(Br)cn3)c2)COC1` (stereo not shown) [Example 32, 5-Bromo-pyridine-2-carboxylic acid [3-(5-amino-3-fluoromethyl-3,6-dihydro-2H-[1,4]oxazin-3-yl)-5-chloro-phenyl]-amide], the IC50 was 1400 nM. As for `NC1=N[C@](CF)(c2cccc(NC(=O)c3ccc(Br)cn3)c2)COC1` [Example 33, 5-Bromo-pyridine-2-carboxylic acid [3-((R)-5-amino-3-fluoromethyl-3,6-dihydro-2H-[1,4]oxazin-3-yl)-phenyl]-amide], the IC50 turned out to be 130 nM.

Regarding `NC1=NC(c2cccc(NC(=O)c3ccc(Br)cn3)c2)(C(F)F)COC1` (stereo not shown) [Example 34, 5-Bromo-pyridine-2-carboxylic acid [3-(5-amino-3-difluoromethyl-3,6-dihydro-2H-[1,4]oxazin-3-yl)-phenyl]-amide hydrochloride], the IC50 was 560 nM. Take `N#Cc1ccc(C(=O)Nc2cccc(C3(C(F)F)COCC(N)=N3)c2)nc1` (stereo not shown) [Example 36, 5-Cyano-pyridine-2-carboxylic acid [3-(5-amino-3-difluoromethyl-3,6-dihydro-2H-[1,4]oxazin-3-yl)-phenyl]-amide]: the IC50 amounted to 350 nM.

`Cc1cc(Br)cnc1C(=O)Nc1cccc(C2(C(F)F)COCC(N)=N2)c1` (stereo not shown) [Example 37, 5-Bromo-3-methyl-pyridine-2-carboxylic acid [3-(5-amino-3-difluoromethyl-3,6-dihydro-2H-[1,4]oxazin-3-yl)-phenyl]-amide]: the IC50 was 120 nM.

As to `NC1=NC(c2cccc(NC(=O)c3ccc(C(F)(F)F)cn3)c2)(C(F)F)COC1` (stereo not shown) [Example 39, 5-Trifluoromethyl-pyridine-2-carboxylic acid [3-(5-amino-3-difluoromethyl-3,6-dihydro-2H-[1,4]oxazin-3-yl)-phenyl]-amide], the IC50 came out at 780 nM. Take `NC1=NC(c2cccc(NC(=O)c3ncc(C(F)(F)F)cc3Cl)c2)(C(F)F)COC1` (stereo not shown) [Example 40, 3-Chloro-5-trifluoromethyl-pyridine-2-carboxylic acid [3-(5-amino-3-difluoromethyl-3,6-dihydro-2H-[1,4]oxazin-3-yl)-phenyl]amide]: the IC50 worked out at 1000 nM.

As for `Cc1cc(Cl)cnc1C(=O)Nc1cccc(C2(C(F)F)COCC(N)=N2)c1` (stereo not shown) [Example 41, 5-Chloro-3-methyl-pyridine-2-carboxylic acid [3-(5-amino-3-difluoromethyl-3,6-dihydro-2H-[1,4]oxazin-3-yl)-phenyl]-amide], the IC50 turned out to be 350 nM. In the case of `NC1=NC(c2cc(NC(=O)c3ccc(Br)cn3)ccc2F)(C(F)F)COC1` (stereo not shown) [Example 42, 5-Bromo-pyridine-2-carboxylic acid [3-(5-amino-3-difluoromethyl-3,6-dihydro-2H-[1,4]oxazin-3-yl)-4-fluoro-phenyl]-amide hydrochloride], the half-maximal inhibitory concentration (IC50) was 56 nM.

Consider `NC1=NC(c2cc(NC(=O)c3ccc(Cl)cn3)ccc2F)(C(F)F)COC1` (stereo not shown) [Example 43, 5-Chloro-pyridine-2-carboxylic acid [3-(5-amino-3-difluoromethyl-3,6-dihydro-2H-[1,4]oxazin-3-yl)-4-fluoro-phenyl]-amide], for which the half-inhibitory concentration (IC50) came to 62 nM. With `Cc1cc(Cl)cnc1C(=O)Nc1ccc(F)c([C@]2(C(F)F)COCC(N)=N2)c1` [Example 44, 5-Chloro-3-methyl-pyridine-2-carboxylic acid [3-((R)-5-amino-3-difluoromethyl-3,6-dihydro-2H-[1,4]oxazin-3-yl)-4-fluoro-phenyl]-amide], the IC50 is 19 nM. With `Cc1cc(Br)cnc1C(=O)Nc1ccc(F)c([C@]2(C(F)F)COCC(N)=N2)c1` [Example 45, 5-Bromo-3-methyl-pyridine-2-carboxylic acid [3-((R)-5-amino-3-difluoromethyl-3,6-dihydro-2H-[1,4]oxazin-3-yl)-4-fluoro-phenyl]amide] the figure was 16 nM.

On to `NC1=N[C@@](c2cc(NC(=O)c3ncc(C(F)(F)F)cc3Cl)ccc2F)(C(F)F)COC1` [Example 46, 3-Chloro-5-trifluoromethyl-pyridine-2-carboxylic acid [3-((R)-5-amino-3-difluoromethyl-3,6-dihydro-2H-[1,4]oxazin-3-yl)-4-fluoro-phenyl]-amide], for which the IC50 came out at 71 nM. Turning to `NC1=N[C@@](c2cc(NC(=O)c3ccc(C(F)(F)F)cn3)ccc2F)(C(F)F)COC1` [Example 47, 5-Trifluoromethyl-pyridine-2-carboxylic acid [3-((R)-5-amino-3-difluoromethyl-3,6-dihydro-2H-[1,4]oxazin-3-yl)-4-fluoro-phenyl]-amide], the IC50 was 56 nM. Consider `Cc1cnc(C(=O)Nc2ccc(F)c([C@]3(C(F)F)COCC(N)=N3)c2)cn1` [Example 48, 5-Methyl-pyrazine-2-carboxylic acid [3-((R)-5-amino-3-difluoromethyl-3,6-dihydro-2H-[1,4]oxazin-3-yl)-4-fluoro-phenyl]-amide], for which the IC50 is 550 nM.

Turning to `COc1ccc(C(=O)Nc2ccc(F)c([C@]3(C(F)F)COCC(N)=N3)c2)nc1` [Example 49, 5-Methoxy-pyridine-2-carboxylic acid [3-((R)-5-amino-3-difluoromethyl-3,6-dihydro-2H-[1,4]oxazin-3-yl)-4-fluoro-phenyl]-amide], the half-maximal inhibitory concentration (IC50) amounted to 50 nM. Regarding `C[C@@]1(c2cc(Br)cc(NC(=O)c3ncc(Br)cn3)c2)COCC(N)=N1` [Example 51, 5-Bromo-pyrimidine-2-carboxylic acid [3-((R)-5-amino-3-methyl-3,6-dihydro-2H-[1,4]oxazin-3-yl)-5-bromo-phenyl]-amide hydrochloride], the IC50 turned out to be 230 nM.

In the case of `C[C@@]1(c2cc(Br)cc(NC(=O)c3ccc(Br)cn3)c2)COCC(N)=N1` [Example 52, 5-Bromo-pyridine-2-carboxylic acid [3-((R)-5-amino-3-methyl-3,6-dihydro-2H-[1,4]oxazin-3-yl)-5-bromo-phenyl]-amide], the IC50 is 180 nM. Take `C[C@@]1(c2cc(Br)cc(NC(=O)c3ccc(C#N)cn3)c2)COCC(N)=N1` [Example 53, 5-Cyano-pyridine-2-carboxylic acid [3-((R)-5-amino-3-methyl-3,6-dihydro-2H-[1,4]oxazin-3-yl)-5-bromo-phenyl]-amide]: the IC50 was 380 nM. Regarding `Cc1cc(Br)cnc1C(=O)Nc1cc(Br)cc([C@]2(C)COCC(N)=N2)c1` [Example 55, 5-Bromo-3-methyl-pyridine-2-carboxylic acid [3-((R)-5-amino-3-methyl-3,6-dihydro-2H-[1,4]oxazin-3-yl)-5-bromo-phenyl]-amide], the IC50 was found to be 84 nM. `C[C@@]1(c2cc(Br)cc(NC(=O)c3ccc(Cl)cn3)c2)COCC(N)=N1` [Example 56, 5-Chloro-pyridine-2-carboxylic acid [3-((R)-5-amino-3-methyl-3,6-dihydro-2H-[1,4]oxazin-3-yl)-5-bromo-phenyl]-amide]: the IC50 was 101 nM. With `Cc1cnc(C(=O)Nc2cc(Br)cc([C@]3(C)COCC(N)=N3)c2)cn1` [Example 57, 5-Methyl-pyrazine-2-carboxylic acid [3-((R)-5-amino-3-methyl-3,6-dihydro-2H-[1,4]oxazin-3-yl)-5-bromo-phenyl]-amide], the IC50 stood at 1700 nM. Regarding `Cc1nc(C(=O)Nc2cc(Br)cc([C@]3(C)COCC(N)=N3)c2)c(C)o1` [Example 58, 2,5-Dimethyl-oxazole-4-carboxylic acid [3-((R)-5-amino-3-methyl-3,6-dihydro-2H-[1,4]oxazin-3-yl)-5-bromo-phenyl]amide], the IC50 is 780 nM. As to `Cc1nc(C(=O)Nc2cc(Br)cc([C@]3(C)COCC(N)=N3)c2)co1` [Example 59, 2-Methyl-oxazole-4-carboxylic acid [3-((R)-5-amino-3-methyl-3,6-dihydro-2H-[1,4]oxazin-3-yl)-5-bromo-phenyl]-amide], the IC50 was determined as 240 nM.

For `Cc1cnc(C(=O)Nc2ccc(F)c(C3(C)COCC(N)=N3)c2)cn1` (stereo not shown) [Example 61, 5-Methyl-pyrazine-2-carboxylic acid [3-(5-amino-3-methyl-3,6-dihydro-2H-[1,4]oxazin-3-yl)-4-fluoro-phenyl]-amide hydrochloride], the IC50 worked out at 1970 nM.

`CC1(c2cc(NC(=O)c3ccc(C#N)cn3)ccc2F)COCC(N)=N1` (stereo not shown) [Example 62, 5-Cyano-pyridine-2-carboxylic acid [3-(5-amino-3-methyl-3,6-dihydro-2H-[1,4]oxazin-3-yl)-4-fluoro-phenyl]-amide hydrochloride]: the IC50 turned out to be 95 nM. To `CC1(c2cc(NC(=O)c3ccc(C(N)=O)cn3)ccc2F)COCC(N)=N1` (stereo not shown) [Example 65, Pyridine-2,5-dicarboxylic acid 5-amide 2-{[3-(5-amino-3-methyl-3,6-dihydro-2H-[1,4]oxazin-3-yl)-4-fluoro-phenyl]-amide} hydrochloride] belongs 1200 nM; to `C[C@@]1(c2cc(NC(=O)c3ccc(C#N)cn3)ccc2F)CO[C@@](C)(C(F)(F)F)C(N)=N1` [Example 73, 5-Cyano-pyridine-2-carboxylic acid [3-((3R,6R)-5-amino-3,6-dimethyl-6-trifluoro-methyl-3,6-dihydro-2H-[1,4]oxazin-3-yl)-4-fluoro-phenyl]-amide hydrochloride], 26 nM.

On to `COCCOc1cnc(C(=O)Nc2ccc(F)c([C@]3(C)CO[C@@](C)(C(F)(F)F)C(N)=N3)c2)cn1` [Example 74, 5-(2-Methoxy-ethoxy)-pyrazine-2-carboxylic acid [3-((3R,6R)-5-amino-3,6-dimethyl-6-trifluoromethyl-3,6-dihydro-2H-[1,4]oxazin-3-yl)-4-fluoro-phenyl]-amide hydrochloride], for which the IC50 was determined as 79 nM.
